Experimental data from patent publication US5369111A, “Modulator agent and use thereof” (University of Vermont, priority 1992, dated 1994).
Entries after “also recorded” stand apart in the source; their conditions may differ. Read-outs that look alike come from different tables or passages of the source.

Columns and labels:
[1] = Inhibition of population growth (cytotoxicity), rat colon adenocarcinoma RCC-2; assay type: cell-based; settings: rat, rcc-2 cells; RCC-2; Table III; read-out: Modulator concentration (nontoxic concentration limit of the analog)
Excerpt: (§1) The analogs were examined in a panel of tumor cell lines of both intrinsic and acquired drug resistance, as described in Table 1. The rat colon adenocarcinoma cell lines RCC-2 and RCC-5 (ref. 13) were maintained in Ham's F12 medium supplemented with 5% heat-inactivated, fetal bovine serum (Sterile Systems. Hyclone, Logan, Utah). The two rat colon cancer cell lines differ in their degree of cellular differentiation; whereas the RCC-2 cell line is undifferentiated, the RCC-5 cell line is highly mucinous. The human epidermoid carcinoma cell line KB-3-1 and its MDR variant KB-Vl, selected by VBL treatment (ref. 14; courtesy of M. Gottesman. National Cancer Institute), was maintained in DMEM medium supplemented with 10%, heat-inactivated, fetal bovine serum. The murine sarcoma cell line […] and its MDR strains A3 and A10 selected by ADM treatment (ref. 15; courtesy of T. Tritton, Dept. Pharmacology, Univ. Vermont). were maintained in DMEM medium supplemented with 10% heat-inactivated, horse serum (Hazelton Biolog. Lenexa, Kans.). Stock cultures were subcultured twice weekly upon reaching the late exponential phase of population growth: population doubling times were 18-24 h. Antibiotics were not used in stock or experimental cultures. The MDR cell strains were grown in drug-free media for 48 h prior to experimental use.
(§2) Mid-exponential cultures were used for all assays. The RCC-2 and RCC-5 cell lines were seeded into 24-well plates at 2×10^4 cells/well and allowed to attach to the substratum for 16-18 h prior to treatment. The S180 cell lines were seeded into culture tubes at 1×10^5 cells/ml and treated immediately. Cytotoxicity was determined by quantitation of population growth after 72 h incubation by electronic particle counter (Coulter Electronics, Hialeah, Fla.). The human tumor cell lines were used in a clonogenic assay for cytotoxicity. Cells were seeded at 300 cells/dish, incubated overnight and then treated. Colonies were scored 7-11 days later. In all assays of analog modulation of drug sensitivity, the analog was added minutes prior to the addition of cytotoxic drug.

[2] = Inhibition of population growth (cytotoxicity), rat colon adenocarcinoma RCC-5; assay type: cell-based; settings: rat, rcc-5 cells; RCC-5; Table III; read-out: Modulator concentration (nontoxic concentration limit of the analog)
Excerpt: as §1, §2

[3] = Inhibition of population growth (cytotoxicity), S180 sarcoma, parental; assay type: cell-based, mouse; settings: mouse, s180 cells; S180; Table III; read-out: Modulator concentration (nontoxic concentration limit of the analog)
Excerpt: as §1, §2

[4] = system: S180/MDR cell system and rat colon cancer cell lines; assay: Cytotoxicity in the S180/MDR cell system and the rat colon cancer cell lines; assay type: cell-based, mouse; settings: S-180, 72 h
Excerpt: as §1, §2

S180 cells, parental = assay: Modulation of intrinsic drug resistance, parental S180; assay type: cell-based, murine; settings: for Maximum sensitization of parental cells by modulator, drug ADM / Maximum sensitization of parental cells by modulator, drug VBL / Maximum sensitization of parental cells by modulator, drug VCR: S180, IC50 drug alone / IC50 drug + modulator, at nontoxic concentration limit; for modulation of sensitivity of parental S180 cells to VBL, VCR and ADM (in words): all three drugs
Procedure: as §2
The ability of the compounds to modulate drug sensitivity in parental cells was studied over a range of concentrations of each compound, from 10^-6 M to the non-toxic (IC10-20) or solubility limit. […] From such experiments, we determined a sensitivity index derived from the IC50 of the drug without modulator treatment divided by the drug IC50 at each concentration of modulator.
When the sensitivity index for each drug, VBL, VCR and ADM is plotted versus the modulator concentration (FIG. 4), we can compare the relative potencies of the compounds as modulators of drug toxicity to the parental S180 cells.
(§3) *calculated as the IC50 of the drug alone divided by the IC50 o
(§4) the [drug modulator] combination. Data are presented from tretments with
FIG. 4 represents the potency of the vinca alkaloid compounds as modulators of drug sensitivity in S180 cells. The enhancement of sensitivity was calculated as the sensitivity index=IC50 of the drug alone divided by the IC50 of the drug+modulator. The IC50s for ADM (o) VBL (Δ), or VCR (.quadrature.) were determined over a concentration range of each modulator from data such as those depicted in FIG. 3. The values presented were averaged from duplicate samples of two separate experiments, S.D. <15% of the mean.

RCC-2 cells = assay: Modulation of intrinsic drug resistance, RCC-2; assay type: cell-based, rat; settings: IC50 drug alone / IC50 drug + modulator, at nontoxic concentration limit
Procedure: as §2, §3, §4
(§5) the nontoxic concentration limit of each analog as noted.

RCC-5 cells = assay: Modulation of intrinsic drug resistance, RCC-5; assay type: cell-based, rat; settings: RCC-5; IC50 drug alone / IC50 drug + modulator, at nontoxic concentration limit
Procedure: as §2, §3, §4, §5
FIG. 9 represents the modulation of VCR sensitivity in the RCC-12 (A) and RCC-5 (B) cell lines by the analog C-20'-deoxy deethyl vincovaline. Population growth was determined after 72 hours incubation in the absence (o), or presence of 10 μM (o), 20 μM (Δ), or 50 μM of analog. Data presented are from a typical experiment.

S180/A3 cells = assay: Modulator potency in MDR cells: reversal of acquired resistance, S180/A3; assay type: cell-based, murine; settings: for Modulator potency in MDR cells (minimal concentration restoring parental drug sensitivity), VBL: drug resistance level 3; for Modulator potency in MDR cells (minimal concentration restoring parental drug sensitivity), VCR: drug resistance level 7
Procedure: as §2
(§6) To evaluate the ability of vindoline and the two diastereoisomeric VBL analogs to modulate the MDR phenotype (acquired resistance) of the A3 and A10 cell stains, we determined the concentration of compound required to restore drug sensitivities to parental levels. This was done by exposing the MDR cell line to a concentration range of modulator in the presence VBL, VCR and ADM at the respective IC70s of the parental cell line. The cytotoxicity curves for A3 and A10 cells, shown in FIG. 5, are distinctive among the three vinca alkaloids examined. In each cell line, there was a minimum concentration of modulator that elicited 70% growth inhibition for each drug - i.e. the reversing concentration.
(§7) *The minimal concentration of modulator required to restore the drug
(§8) sensitivity of S180/MDR cell strains to that of parental S180 cells. Data
(§9) are the averages of 2-3 separate experiments, S.D. ≤20%.

S180/A10 cells = assay: Modulator potency in MDR cells: reversal of acquired resistance, S180/A10; assay type: cell-based, murine; settings: for Modulator potency in MDR cells (minimal concentration restoring parental drug sensitivity), ADM: drug resistance level 90; for Modulator potency in MDR cells (minimal concentration restoring parental drug sensitivity), VBL: drug resistance level 10
Procedure: as §2, §6, §7, §8, §9

[5] = system: S180 MDR cell strains A3 and A10; assay: Modulation of acquired drug resistance in the S180 MDR cell strains A3 and A10; assay type: cell-based, murine
Procedure: as §2, §6
FIG. 5 represents the modulation of multidrug resistance in the MDR cell strains by the vinca alkaloids. Vindoline (A), vincovaline (B), or the analog C-20'-deoxy vincovaline (C) was added, at various concentrations, to A3 (closed symbols) or A10 (opened symbols) cell cultures containing the parental IC70 of each drug: 2.0×10^-7 M. ADM (circles: 1.5×10^-8 M VBL (triangles); and 4.5×10^-8 M; VCR (squares). Population growth was determined 72 hours later.
FIG. 6 represents the relationship between cellular drug resistance level and the minimal modulator concentration required for complete reversal of drug resistance. The drugs examined were ADM (o), VBL (Δ), and VCR (.quadrature.). The amount (concentration) of modulator, necessary to reverse each level of drug resistance contained in the A3 and A10 cell lines, was determined from data such as those of FIG. 5. The values presented were averaged from duplicate samples of two separate experiments, S.D.<15% of the mean. The arrows denote the non-toxic concentration limit for the modulator; in the case of Vincovaline this value is dependent on the MDR cell strain, 2×10^-5 M, A3; 5×10^-5 M. A10.
FIG. 11 represents the modulation of multidrug resistance in the S180 MDR cell strains A3 and A10. The cellular drug resistance level is plotted against the minimal concentration of C-20'-deoxy deethyl vincovaline required for the complete reversal of drug resistance to ADM (o), VBL (Δ), and VCR (.quadrature.). In the case of high level ADM resistance […], the sensitivity of the cells was restored to 80% of the parental value. The arrow denotes the non-toxic concentration limit of the analog.

[6] = system: parental cell lines (S180, RCC-2, RCC-5); assay: Modulation of intrinsic resistance in the parental cell lines (S180, RCC-2, RCC-5); assay type: cell-based, mouse, rat
Procedure: as §2, §3, §4, §5

[7] = system: S180 cell system (S180, A3, A10); assay: Inherent cytotoxicity in the S180 cell system (S180, A3, A10); assay type: cell-based, murine
Excerpt: as §1, §2
FIG. 2 represents the toxicity of the vinca alkaloid compounds to population growth. Vindoline, vincovaline or the analog, C-20'-deoxy vincovaline was added, at various concentrations, to S180 (.cndot.), A3 (o), or A10 (Δ) cell cultures. The population cell number was determined 72 hours later.

SMILES	MNTC at 72 h [1] [µM]	MNTC at 72 h [2] [µM]	MNTC at 72 h [3] [µM]	IC50 [4] [µM]	Maximum sensitization of parental cells by modulator, drug ADM (S180 cells, parental)	Maximum sensitization of parental cells by modulator, drug VBL (S180 cells, parental)	Maximum sensitization of parental cells by modulator, drug VCR (S180 cells, parental)	Maximum sensitization of parental cells by modulator, drug VCR (RCC-2 cells)	Maximum sensitization of parental cells by modulator, drug ADM (RCC-5 cells)	Maximum sensitization of parental cells by modulator, drug VBL (RCC-5 cells)	Maximum sensitization of parental cells by modulator, drug VCR (RCC-5 cells)	Modulator potency in MDR cells (minimal concentration restoring parental drug sensitivity), VBL (S180/A3 cells) [µM]	Modulator potency in MDR cells (minimal concentration restoring parental drug sensitivity), VCR (S180/A3 cells) [μM]	Modulator potency in MDR cells (minimal concentration restoring parental drug sensitivity), ADM (S180/A10 cells)	Modulator potency in MDR cells (minimal concentration restoring parental drug sensitivity), VBL (S180/A10 cells) [μM]	restoration of parental drug sensitivity in MDR cells (in words) ([5]; VBL, VCR, ADM)	modulation of intrinsic cellular resistance to ADM and/or VCR (in words) [6]	effect on the sensitivity of parental cells to VBL (in words) [6]	also measured
CC[C@]12C=CCN3CC[C@@]4(c5cc([C@@]6(C(=O)OC)C[C@H]7CCCN(CCc8c6[nH]c6ccccc86)C7)c(OC)cc5N(C)[C@H]4[C@@](O)(C(=O)OC)[C@@H]1OC(C)=O)[C@@H]32 [analog n° 330, C-14'-epi-C-20'-deethyl C-20'-deoxy-vinblastine]	10	10	20	≥ 5	4.2	1.0	2.0	2.0	2.2	2.0	6.0	5.2	11.	no effect	18.	full restoration of parental drug sensitivity was achieved for VBL and low level VCR resistance, only	modulated intrinsic cellular resistance to ADM and/or VCR	less effect on the sensitivity of parental cells to VBL	Maximum sensitization of parental cells by modulator, drug ADM (RCC-2 cells): 1.0
CC[C@]12C=CCN3CC[C@@]4(c5cc([C@]6(C(=O)OC)C[C@@H]7CCCN(CCc8c6[nH]c6ccccc86)C7)c(OC)cc5N(C)[C@H]4[C@@](O)(C(=O)OC)[C@@H]1OC(C)=O)[C@@H]32 [analog n° 331, C-16' epi-C-20'-deoxy-C-20'-deethylvinblastine]	10	20	50	≥ 5	3.4	1.0	2.5	2.0	3.5	1.0	2.0	5.0	10.	no effect	34.	full restoration of parental drug sensitivity was achieved for VBL and low level VCR resistance, only	modulated intrinsic cellular resistance to ADM and/or VCR	less effect on the sensitivity of parental cells to VBL	–
CCC12C=CCN3CC[C@@]4(c5ccc(OC)cc5N(C)[C@H]4[C@@](O)(C(=O)OC)[C@@H]1OC(C)=O)[C@@H]32 (stereo partly drawn) [vindoline, reference compound]	–	–	–	–	–	–	–	–	–	–	–	–	–	–	–	–	–	–	inherent cytotoxicity / resistance profile (in words) [7]: equitoxic to parental and MDR cell lines; IC50 ([7]; Mus musculus, S-180, S180 parental and MDR cell lines, read-out: IC50 (inhibition of cell growth)): 40 µM; inherent cytotoxicity / resistance profile (in words) ([7]; S180, A3, A10): inhibited the growth of the parental and MDR cell strains with a similar dependence on concentration; modulation of sensitivity of parental S180 cells to VBL, VCR and ADM (in words) (S180 cells, parental): sensitized S180 cells to all three drugs with a similar dependence on its concentration; also recorded: sensitized the parental S180 cells to all three drugs; modulation of sensitivity of parental S180 cells to VBL, VCR and ADM (in words) (S180 cells, parental; listed as Vindoline): no evidence of selective modulation; reversal of high level ADM resistance (in words) (S180/A10 cells; A10 cells, 90 fold ADM resistance): limited in this activity by their own cytoxicity in the MDR cell lines; modulation of cellular resistance to VBL, VCR and ADM in MDR cell strains (in words) ([5]; A3 and A10): modulators of cellular resistance to VBL, VCR and ADM; relation of reversing concentration to degree of drug resistance (in words) ([5]; A3 and A10, VBL, VCR, ADM): This correllation was not observed
